In the experiment the test system is Trypanosoma brucei. Put plainly: ALAMARBLUE cell viability / growth assay of T. brucei cells. The format is cell-based. The settings on record: T. brucei, 72 hours, normalized to DMSO control; for inhibition at 2 µM / inhibition at 5 µM: Trypanosoma brucei. The procedure: To determine cell growth rate, WT and two TbRPA1 RNAi KD strains (KD1 and KD2) were seeded at a density of 1×10^5 cells/ml and cultured with or without tetracycline for the induction of RNAi. Cells were counted every 12 hours for 2 days. To determine the viability of TbRPA1-depleted cells, ALAMARBLUE® assay (Thermo Fisher, an established colorimetric technique that detects metabolically active cells) was used. Cells from each time point were incubated with ALAMARBLUE® dye for 4-6 hours and percentage of live cells was determined by measuring resorufin converted from resazurin by reducing environment of live cells. Synergy H1 microplate reader (BioTek) was used with 560/590 nm (excitation/emission) filter settings and Relative Fluorescence Unit (RFU) values were obtained. The percentage of viable cells were calculated from the RFU values.
The initial assessment of JC-229's inhibitory effect on T. brucei cell growth was performed at 50 μM concentration. Trypanosome cells were seeded at 1×10^3 cells/ml density in 180 μl in a 96-well culture plate in triplicate. These cells were incubated with 50 μM JC-229 for 24, 48, and 72 hours. DMSO was used as a vehicle control at 0.0075%. JC-229-treated culture and control cultures were analyzed with the ALAMARBLUE® dye as described above.
To obtain the EC50 value of JC-229, T. brucei cells were seeded at 1×10^3 cells/ml density in 180 μl in a 96-well culture plate in triplicate. These cells were incubated for 72 hours with increasing concentrations of JC-229, (0.5 μM to 50 μM) and cell viability was determined using the ALAMARBLUE® dye as described above.
Trypanosoma brucei cytotoxicity of JC-229 and analogs were measured using ALAMARBLUE® assay (Rampersad, S. N. Multiple applications of ALAMARBLUE® as an indicator of metabolic function and cellular health in cell viability bioassays. Sensors (Basel) 12, 12347-12360 (2012). Trypanosome cells were seeded at 1×10^3 cells/ml density in 180 μl in a 96-well culture plate in triplicate. These cells were incubated with indicated concentration of JC compounds for 72 hours. DMSO was used as a vehicle control at 0.0075%. JC compound-treated cultures were then incubated with ALAMARBLUE® dye for 4-6 hours and percentage of live cells was determined using Synergy H1 microplate reader (BioTek) with 560/590 nm (excitation/emission) filter settings and Relative Fluorescence Unit (RFU) values were obtained. The percentage of viable cells were calculated from the RFU values by normalizing to DMSO treated control. In one embodiment, the inhibitor is characterized in that it provides at least 50%, at least 80% or at least 90% inhibition at a concentration of 5 μM when tested in accordance with the above conditions.

The text below walks through data of patent US20250188033A1, “INHIBITOR OF REPLICATION PROTEIN A1 OF TRYPANOSOMA BRUCEI AND METHOD OF USE THEREOF” (Research Foundation of the City University of New York, published 2025).

A word on the inhibition: it is the relative decrease from the control value, in per cent.

Structures are written as SMILES.

Regarding `Cc1ccc(C(=O)Nc2ccc(Cl)c(Cl)c2)cc1S(=O)(=O)N1CCCC(NC(=S)Nc2ccc(C(F)(F)F)cc2)C1` (centres unmarked) [JC-1008], the “% Inhibition @2 μM” value is 100% and the “% Inhibition @5 μM” value came to 100%.
Take `Cc1ccc(C(=O)Nc2ccc(Cl)c(Cl)c2)cc1S(=O)(=O)C1CCC(NC(=O)c2ccccc2)CC1` (centres unmarked) [JC-927]: the “% Inhibition @2 μM” value was 0%, the “% Inhibition @5 μM” value amounted to 42.4% and the “% Inhibition @10 μM” value is 100%.
For `Cc1ccc(C(=O)Nc2ccc(Cl)c(Cl)c2)cc1S(=O)(=O)NCCNS(=O)(=O)c1ccc(OCc2ccccc2)cc1` [JC-997], the “% Inhibition @2 μM” value is reported as −9% and the “% Inhibition @5 μM” value was 92%.
Take `Cc1ccc(C(=O)Nc2ccc(Cl)c(Cl)c2)cc1S(=O)(=O)NCCNC(=O)OC(C)(C)C` [JC-917]: the “% Inhibition @2 μM” value is reported as −14% and the “% Inhibition @10 μM” value amounted to 73%.
Regarding `Cc1ccc(C(=O)Nc2ccc(Cl)c(Cl)c2)cc1S(=O)(=O)N1CCC(NC(=O)OC(C)(C)C)CC1` [JC-896], the “% Inhibition @2 μM” value turned out to be 17%, the “% Inhibition @5 μM” value is 69.4% and the “% Inhibition @10 μM” value came to 92%.
As to `Cc1ccc2c(NS(=O)(=O)c3cc(C(=O)Nc4ccc(Cl)c(Cl)c4)ccc3C)cccc2n1` [JC-913], the “% Inhibition @2 μM” value was 2% and the “% Inhibition @10 μM” value is recorded as 6%.
Turning to `Cc1ccc(C(=O)Nc2ccc(Cl)c(Cl)c2)cc1S(=O)(=O)N1CCCC(NC(=S)Nc2ccccc2F)C1` (centres unmarked) [JC-1006], the “% Inhibition @2 μM” value was 17% and the “% Inhibition @5 μM” value worked out at 101%.
For the molecule `Cc1ccc(C(=O)Nc2ccc(Cl)c(Cl)c2)cc1S(=O)(=O)Nc1cc[nH]n1` [JC-902], the “% Inhibition @2 μM” value was 14% and the “% Inhibition @10 μM” value is given as 56%.
On the same counts, the results for `Cc1ccc(C(=O)Nc2ccc(Cl)c(Cl)c2)cc1S(=O)(=O)NCCNC(=O)c1ccccc1` [JC-920] are −5% and −9%.
On the same counts, the results for `Cc1ccc(C(=O)Nc2ccc(Cl)c(Cl)c2)cc1S(=O)(=O)NCCc1ccccc1` [JC-854] are −27% and 14%.
Consider `Cc1ccc(C(=O)Nc2ccc(Cl)c(Cl)c2)cc1S(=O)(=O)N1CCCC(NC(=O)Cc2ccccc2)C1` (centres unmarked) [JC-930], for which the “% Inhibition @2 μM” value is recorded as 4%, the “% Inhibition @5 μM” value stood at 99.7% and the “% Inhibition @10 μM” value amounted to 100%.
`Cc1ccc(C(=O)Nc2ccc(Cl)c(Cl)c2)cc1S(=O)(=O)Nc1cc(C(F)(F)F)n[nH]1` [JC-874]: the “% Inhibition @2 μM” value is reported as 1%, the “% Inhibition @5 μM” value came out at 51.8% and the “% Inhibition @10 μM” value came out at 97%.
As to `Cc1ccc(C(=O)NCCN(C)C)cc1S(=O)(=O)Nc1ccc(Cl)c(Cl)c1.O=C(O)C(F)(F)F` [JC-863], the “% Inhibition @2 μM” value is −40% and the “% Inhibition @10 μM” value is reported as 2%.
On to `Cc1ccc(C(=O)Nc2ccc(Cl)c(Cl)c2)cc1S(=O)(=O)NCCNS(=O)(=O)c1cccc(Br)c1` [JC-994], for which the “% Inhibition @2 μM” value is recorded as −17% and the “% Inhibition @5 μM” value stood at 61%.
With `Cc1ccc(C(=O)Nc2ccc(Cl)c(Cl)c2)cc1S(=O)(=O)NCCCCCO` [JC-897], the “% Inhibition @2 μM” value is reported as 0% and the “% Inhibition @10 μM” value is recorded as 36%.
In the case of `Cc1ccc(C(=O)Nc2ccc(Cl)c(Cl)c2)cc1S(=O)(=O)Nc1ccc(O)cc1` [JC-912], the “% Inhibition @2 μM” value is given as −5% and the “% Inhibition @10 μM” value is given as 58%.
As to `Cc1ccc(C(=O)Nc2ccc(Cl)c(Cl)c2)cc1S(=O)(=O)N1CCCC(NC(=O)c2ccccc2)C1` (centres unmarked) [JC-931], the “% Inhibition @2 μM” value was 3%, the “% Inhibition @5 μM” value was determined as 98.5% and the “% Inhibition @10 μM” value is 100%.
Turning to `Cc1ccc(C(=O)Nc2ccc(Cl)c(Cl)c2)cc1S(=O)(=O)NCCNS(=O)(=O)c1ccc(CBr)cc1` [JC-993], the “% Inhibition @2 μM” value was determined as 76% and the “% Inhibition @5 μM” value was 100%.
`Cc1ccc(C(=O)Nc2ccc(Cl)c(Cl)c2)cc1S(=O)(=O)NCCCCO` [JC-895]: the “% Inhibition @2 μM” value came to 10% and the “% Inhibition @10 μM” value is 45%.
For the molecule `Cc1ccc(C(=O)Nc2ccc(Cl)c(Cl)c2)cc1S(=O)(=O)Nc1ccc(C#N)cc1N` [JC-889], the “% Inhibition @2 μM” value is on record as −3% and the “% Inhibition @10 μM” value is −11%.
For the molecule `Cc1ccc(C(=O)Nc2ccc(Cl)c(Cl)c2)cc1S(=O)(=O)NCCCNC(=O)OC(C)(C)C` [JC-932], the “% Inhibition @2 μM” value worked out at 7% and the “% Inhibition @10 μM” value stood at 73%.
On the same counts, the results for `Cc1ccc(C(=O)Nc2ccc(Cl)c(Cl)c2)cc1S(=O)(=O)N1CCN(C)CC1` [JC-916] are −2% and 36%.
With `Cc1ccc(C(=O)Nc2ccc(Cl)c(Cl)c2)cc1S(=O)(=O)Nc1cccc([N+](=O)[O-])c1N` [JC-899], the “% Inhibition @2 μM” value is reported as 3% and the “% Inhibition @10 μM” value was determined as 14%.
For the molecule `CC(=O)NCCNS(=O)(=O)c1cc(C(=O)Nc2ccc(Cl)c(Cl)c2)ccc1C` [JC-919], the “% Inhibition @2 μM” value is reported as −10% and the “% Inhibition @10 μM” value is listed as 18%.
In the case of `Cc1ccc(C(=O)Nc2ccc(Cl)c(Cl)c2)cc1S(=O)(=O)N1CCC(NC(=S)Nc2ccc(F)cc2)CC1` [JC-970], the inhibition at 2 µM came to 100% and the inhibition at 5 µM stood at 100%.
With `Cc1ccc(C(=O)Nc2ccc(Cl)c(Cl)c2)cc1S(=O)(=O)NCCO` [JC-872], the “% Inhibition @2 μM” value was −13% and the “% Inhibition @10 μM” value amounted to 21%.
Take `Cc1ccc(C(=O)Nc2ccc(Cl)c(Cl)c2)cc1S(=O)(=O)N1CCC(NS(=O)(=O)c2cccc(Br)c2)CC1` [JC-1010]: the “% Inhibition @2 μM” value turned out to be 9% and the “% Inhibition @5 μM” value is −15%.
`Cc1ccc(C(=O)Nc2ccc(Cl)c(Cl)c2)cc1S(=O)(=O)N1CCC(F)(F)CC1` [JC-886]: the “% Inhibition @2 μM” value amounted to 3%, the “% Inhibition @5 μM” value worked out at 93.7% and the “% Inhibition @10 μM” value worked out at 100%.
`Cc1ccc(C(=O)Nc2ccc(Cl)c(Cl)c2)cc1S(=O)(=O)N1CCC(N)CC1.O=C(O)C(F)(F)F` [JC-906]: the “% Inhibition @2 μM” value is on record as 23%, the “% Inhibition @5 μM” value was 100% and the “% Inhibition @10 μM” value was 100%.
As for `Cc1ccc(C(=O)Nc2ccc(Cl)c(Cl)c2)cc1S(=O)(=O)NC(Cc1ccccc1)C(N)=O` (centres unmarked) [JC-870], the “% Inhibition @2 μM” value is reported as −34% and the “% Inhibition @10 μM” value was found to be 49%.
As to `Cc1ccc(C(=O)Nc2ccc(Cl)c(Cl)c2)cc1S(=O)(=O)NCCNC(=S)Nc1ccc(Cl)c(Cl)c1` [JC-1002], the “% Inhibition @2 μM” value was determined as 34% and the “% Inhibition @5 μM” value was 100%.
As for `Cc1ccc(C(=O)Nc2ccc(Cl)c(Cl)c2)cc1S(=O)(=O)NCCNS(=O)(=O)c1cc(C(=O)Nc2ccc(Cl)c(Cl)c2)ccc1C` [JC-1021], the “% Inhibition @2 μM” value is 0% and the “% Inhibition @5 μM” value is −5%.
In the case of `Cc1ccc(C(=O)Nc2ccc(Cl)c(Cl)c2)cc1S(=O)(=O)C1CCC(NC(=O)Cc2ccccc2)CC1` (centres unmarked) [JC-926], the “% Inhibition @2 μM” value is recorded as −8%, the “% Inhibition @5 μM” value is listed as 28.9% and the “% Inhibition @10 μM” value was found to be 100%.
Consider `Cc1ccc(C(=O)Nc2ccc(Cl)c(Cl)c2)cc1S(=O)(=O)NCCCNC(=O)c1ccccc1` [JC-935], for which the “% Inhibition @2 μM” value is recorded as 3% and the “% Inhibition @10 μM” value was found to be 19%.
On to `Cc1ccc(C(=O)Nc2ccc(Cl)c(Cl)c2)cc1S(=O)(=O)N1CCC(NC(=S)Nc2ccccc2F)CC1` [JC-1018], for which the “% Inhibition @2 μM” value was found to be 100% and the “% Inhibition @5 μM” value is listed as 100%.
`Cc1ccc(C(=O)Nc2ccc(Cl)c(Cl)c2)cc1S(=O)(=O)N1CCC[C@@H](N)C1` [JC-963]: the inhibition at 2 µM worked out at 96% and the inhibition at 5 µM came to 100%.
`Cc1ccc(C(=O)Nc2ccc(Cl)c(Cl)c2)cc1S(=O)(=O)N1CCC(NC(=O)CCc2ccccc2)CC1` [JC-968]: the “% Inhibition @2 μM” value was found to be 1% and the “% Inhibition @5 μM” value amounted to 5%.
Turning to `Cc1ccc(C(=O)Nc2ccc(Cl)c(Cl)c2)cc1S(=O)(=O)N1CCC(NC(=O)Cc2ccccc2)CC1` [JC-967], the “% Inhibition @2 μM” value is reported as 15% and the “% Inhibition @5 μM” value is −24%.
With `Cc1cc(NS(=O)(=O)c2cc(C(=O)Nc3ccc(Cl)c(Cl)c3)ccc2C)n[nH]1` [JC-894], the “% Inhibition @2 μM” value is recorded as −4% and the “% Inhibition @10 μM” value stood at 2%.
